What is called IC50 is the concentration at which inhibition is half-maximal.

The structures appear in SMILES notation.

From US9255110B2 (Hoffmann-La Roche Inc., priority 2010, dated 2016) come the findings set out here.

The assay deals with IRAK-4 (Homo sapiens (Human), UniProt Q9NWZ3). Description: In vitro IRAK-4 kinase assay. In kind it is biochemical. Conditions: purified recombinant IRAK-4, 50 uM ATP, 33P peptide phosphorylation. On the procedure: Purified recombinant IRAK-4 protein was incubated with 250 uM synthetic peptide ([…]) in 30 ul of kinase buffer including (20 mM MOPS pH7.2, 25 mM beta glycerol phosphate, 5 mM EGTA, 1 mM sodium orthovanadate, 1 mM DTT, 50 uM ATP, 20 mM MgCl2, 10 uCi γ-^33P, 0.1% BSA) for the indicated time. For purified recombinant IRAK-1 protein kinase assay, 50 uM ATP was used. A 25 ul aliquot of the reaction mixture was transferred on to p81 phosphocellulose squares (Upstate Biotechnology, Lake Placid, N.Y.). The assay squares were washed three times with 0.75% phosphoric acid and once with acetone. Enzyme activity was measured by determining the bound radioactivity by liquid scintillation counting.
IRAK-4, sequence (Q9NWZ3 whole entry, species assumed): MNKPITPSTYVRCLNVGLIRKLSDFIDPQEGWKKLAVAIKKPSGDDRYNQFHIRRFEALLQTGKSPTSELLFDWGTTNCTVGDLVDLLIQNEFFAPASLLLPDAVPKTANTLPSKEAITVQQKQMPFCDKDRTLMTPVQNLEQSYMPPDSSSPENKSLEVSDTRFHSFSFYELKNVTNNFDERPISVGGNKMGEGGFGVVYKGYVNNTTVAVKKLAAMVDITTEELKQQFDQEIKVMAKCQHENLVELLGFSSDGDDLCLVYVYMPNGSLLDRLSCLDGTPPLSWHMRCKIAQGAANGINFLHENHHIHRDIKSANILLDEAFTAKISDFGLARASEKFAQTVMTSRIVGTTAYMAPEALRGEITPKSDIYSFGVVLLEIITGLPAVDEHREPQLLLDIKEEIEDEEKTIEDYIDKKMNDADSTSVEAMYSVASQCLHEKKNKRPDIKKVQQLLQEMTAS

As to `Cc1cc2cc(-c3ccc(CO)cc3)c(NC(=O)c3cnn4cccnc34)cc2[nH]1` [Example 36, Pyrazolo[1,5-alpha]pyrimidine-3-carboxylic acid [5-(4-hydroxymethyl-phenyl)-2-methyl-1H-indol-6-yl]-amide], the IC50 turned out to be 0.052 µM.

As for `COc1cc2ncccc2cc1NC(=O)c1csc2cnc(N(C)C(C)C)nc12` [Example 85, 2-(Isopropyl-methyl-amino)-thieno[3,2-d]pyrimidine-7-carboxylic acid (7-methoxy-quinolin-6-yl)-amide], the IC50 is 0.432 µM. As for `O=C(Nc1cc(Cl)ccc1N1CCC(CO)C1)c1cnn2cccnc12` (stereo not drawn) [Example 106, Pyrazolo[1,5-alpha]pyrimidine-3-carboxylic acid [5-chloro-2-(3-hydroxymethyl-pyrrolidin-1-yl)-phenyl]-amide], the figure is 0.65 µM; as for `NCC1CCN(c2ccc(Cl)cc2NC(=O)c2cnn3cccnc23)CC1` [Example 31, Pyrazolo[1,{tildeover (5)}alpha] pyrimidine-3-carboxylic acid [2-(4-aminomethyl-piperidin-1-yl)-5-chloro-phenyl]-amide], 0.037 µM; as for `COc1cc2[nH]ncc2cc1NC(=O)c1cnn2cccnc12` [Example 69, Pyrazolo[1,5-alpha]pyrimidine-3-carboxylic acid (6-methoxy-1H-indazol-5-yl)-amide], 0.231 µM. Consider `O=C(Nc1cc(Cl)ccc1OCc1cccc(O)c1)c1cnn2cccnc12` [Example 141, Pyrazolo[1,5-alpha]pyrimidine-3-carboxylic acid [5-chloro-2-(3-hydroxy-benzyloxy)-phenyl]-amide], for which the IC50 stood at 2.63 µM. `CCc1ccc(OC)c(NC(=O)c2cnn3cccnc23)c1` [Example 166, Pyrazolo[1,5-alpha]pyrimidine-3-carboxylic acid (5-ethyl-2-methoxy-phenyl)-amide]: the 50% inhibitory concentration (IC50) is 5.88 µM.

In the case of `COc1cnc2c(C(=O)Nc3cc(Cl)ccc3OC3CCC(O)CC3)cnn2c1` (stereo not drawn) [Example 76, 6-Methoxy-pyrazolo[1,5-a]pyrimidine-3-carboxylic acid [5-chloro-2-(4-hydroxy-cyclohexyloxy)-phenyl]-amide], the IC50 turned out to be 0.301 µM. In the case of `O=C(Nc1cc(Cl)ccc1-c1ccc(CO)cc1)c1cnn2cccnc12` [Example 68, Pyrazolo[1,5-alpha]pyrimidine-3-carboxylic acid (4-chloro-4′-hydroxymethyl-biphenyl-2-yl)-amide], the IC50 was 0.218 µM.

Consider `O=C(Nc1cc(Cl)ccc1N1CCCC(O)C1)c1cnn2cccnc12` (stereo not drawn) [Example 91, Pyrazolo[1,5-alpha]pyrimidine-3-carboxylic acid [5-chloro-2-(3-hydroxy-piperidin-1-yl)-phenyl]-amide], for which the concentration for half-maximal inhibition (IC50) was 0.474 µM. For `COc1ccc(Br)cc1NC(=O)c1cnn2cccnc12` [Example 127, Pyrazolo[1,5-alpha]pyrimidine-3-carboxylic acid (5-bromo-2-methoxy-phenyl)-amide], the half-inhibitory concentration (IC50) is 2.14 µM.

`COc1cc(OC)c(NC(=O)c2cnn3cccnc23)cc1Cl` [Example 142, Pyrazolo[1,5-alpha]pyrimidine-3-carboxylic acid (5-chloro-2,4-dimethoxy-phenyl)-amide]: the IC50 turned out to be 2.74 µM.

Regarding `O=C(Nc1cc(Cl)ccc1Oc1cccc(O)c1)c1cnn2cccnc12` [Example 156, Pyrazolo[1,5-alpha]pyrimidine-3-carboxylic acid [5-chloro-2-(3-hydroxy-phenoxy)-phenyl]-amide], the IC50 was 4.05 µM. As for `O=C(Nc1cccc(NCCO)c1N1CCCCC1)c1cnn2cccnc12` [Example 114, Pyrazolo[1,{tildeover (5)}alpha] pyrimidine-3-carboxylic acid [3-(2-hydroxy-ethylamino)-2-piperidin-1-yl-phenyl]-amide], the figure is 1.03 µM; as for `Nc1cccc(NC(=O)c2cnn3cccnc23)c1N1CCCCC1` [Example 63, Pyrazolo[1,5-alpha]pyrimidine-3-carboxylic acid (3-amino-2-piperidin-1-yl-phenyl)-amide], 0.156 µM.
